Assay results taken from patent publication US20230382910A1, “HETEROARYL COMPOUNDS FOR THE TREATMENT OF PAIN” (VERTEX PHARMACEUTICALS INCORPORATED, priority 2022, published 2023).

Molecular target: human NaV 1.8 (Homo sapiens, UniProt Q9Y5Y9)
Assay: E-VIPR Assay Detecting and Measuring NaV Inhibition Properties
Assay type: cell-based
Settings: HEK cells expressing a truncated form of human NaV 1.8; electrical stimulation, membrane potential FRET dyes; read-out: measured IC50 value in the E-VIPR Assay
Source text: E-VIPR Assay Detecting and Measuring NaV Inhibition Properties
Sodium ion channels are voltage-dependent proteins that can be activated by inducing membrane voltage changes by applying electric fields. The electrical stimulation instrument and methods of use, referred to as E-VIPR, are described in International Publication No. WO 2002/008748 A3 and C.-J. Huang et al. Characterization of voltage-gated sodium channel blockers by electrical stimulation and fluorescence detection of membrane potential, 24 Nature Biotech. 439-46 (2006), both of which are incorporated by reference in their entirety. The instrument comprises a microtiter plate handler, an optical system for exciting the coumarin dye while simultaneously recording the coumarin and oxonol emissions, a waveform generator, a current- or voltage-controlled amplifier, and parallel electrode pairs that are inserted into assay plate wells. Under integrated computer control, this instrument passes user-programmed electrical stimulus protocols to cells within the wells of the microtiter plate.
16-20 hours prior to running the assay on E-VIPR, HEK cells expressing a truncated form of human NaV 1.8 with full channel activity were seeded into microtiter 384-well plates, pre-coated with matrigel, at a density of 25,000 cells per well. 2.5-5% KIR2.1 BacMam virus was added to the final cell suspension before seeding into cell plates. HEK cells were grown in Dulbecco's Modified Eagle's Medium (DMEM) supplemented with 10% FBS (Fetal Bovine Serum, qualified; Sigma #F4135), 1% NEAA (Non-Essential Amino Acids, Gibco #11140), 1% HEPES (Gibco #15630), 1% Pen-Strep (Penicillin-Streptomycin; Gibco #15140) and 5 μg/ml Blasticidin (Gibco #R210-01). Cells were expanded in 5-layer CellSTACK culture chambers or cell culture flasks with vented caps, with 90-95% humidity and 5% CO2.
Compound Loading Buffer (2× concentration): Na/TMA Cl Bath1 Buffer containing HS (omitted in experiments run in the absence of human serum (HS)) 50%, VABSC-1 1 mM, BSA 0.2 mg/ml (in Bath-1), KCl 9 mM, DMSO 0.625%.
Assay Protocol (7 Key Steps):
1) To reach the final concentration in each well, 375 nL of each compound was pre-spotted (in neat DMSO) into polypropylene compound plates at 240× desired final concentration from an intermediate stock concentration of 0.075 mM, in an 11-point dose response, 3-fold dilution, resulting in a top dose of 300 nM final concentration in the cell plate. Vehicle control (neat DMSO), and positive control (an established NaV1.8 inhibitor, 25 μM final in assay in DMSO) were added manually to the outermost columns of each plate respectively. The compound plate was backfilled with 45 μL per well of Compound Loading Buffer resulting in a 240-fold dilution of compound following a 1:1 transfer of compound into the cell plate (see Step 6). Final DMSO concentration for all wells in the assay was 0.625% (0.75% DMSO was supplemented to the Compound Loading Buffer for a final DMSO concentration of 0.625%). This assay dilution protocol was adjusted to enable a higher dose range to be tested in the presence of HS or if the final assay volume was altered.
2) Hexyl Dye Solution was prepared.
3) Cell plates were prepared. On the day of the assay, the media was aspirated, and the cells were washed three times with 80 μL of Bath-1 buffer, maintaining 25 μL residual volume in each well.
4) 25 μL per well of Hexyl Dye Solution was dispensed into the cell plates. The cells were incubated for 20 minutes at room temperature or ambient conditions in darkness.
5) 45 μL per well of Compound Loading Buffer was dispensed into compound plates.
6) The cell plates were washed three times with 80 μL per well of Bath-1 Buffer, leaving 25 µL of residual volume. Then 25 μL per well from compound plate was transferred to each cell plate. The mixture was incubated for 30 minutes at room temperature/ambient conditions. […]

Sequence of human NaV 1.8 (Q9Y5Y9 126-399 limits assumed): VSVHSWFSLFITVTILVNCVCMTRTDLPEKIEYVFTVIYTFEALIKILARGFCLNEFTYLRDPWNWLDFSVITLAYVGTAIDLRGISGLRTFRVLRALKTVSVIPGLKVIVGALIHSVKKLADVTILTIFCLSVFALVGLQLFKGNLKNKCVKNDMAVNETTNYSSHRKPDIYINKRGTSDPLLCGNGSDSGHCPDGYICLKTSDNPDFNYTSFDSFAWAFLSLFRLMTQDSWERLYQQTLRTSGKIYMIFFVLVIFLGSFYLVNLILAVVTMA
Sequence of human NaV 1.8 (Q9Y5Y9 660-890 limits assumed): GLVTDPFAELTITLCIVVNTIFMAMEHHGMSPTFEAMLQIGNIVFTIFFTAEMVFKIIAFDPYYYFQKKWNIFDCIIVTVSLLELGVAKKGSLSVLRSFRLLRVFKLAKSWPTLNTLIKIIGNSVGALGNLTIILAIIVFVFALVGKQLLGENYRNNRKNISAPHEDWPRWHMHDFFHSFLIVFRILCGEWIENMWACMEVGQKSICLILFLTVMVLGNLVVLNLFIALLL
Sequence of human NaV 1.8 (Q9Y5Y9 1148-1722 limits assumed): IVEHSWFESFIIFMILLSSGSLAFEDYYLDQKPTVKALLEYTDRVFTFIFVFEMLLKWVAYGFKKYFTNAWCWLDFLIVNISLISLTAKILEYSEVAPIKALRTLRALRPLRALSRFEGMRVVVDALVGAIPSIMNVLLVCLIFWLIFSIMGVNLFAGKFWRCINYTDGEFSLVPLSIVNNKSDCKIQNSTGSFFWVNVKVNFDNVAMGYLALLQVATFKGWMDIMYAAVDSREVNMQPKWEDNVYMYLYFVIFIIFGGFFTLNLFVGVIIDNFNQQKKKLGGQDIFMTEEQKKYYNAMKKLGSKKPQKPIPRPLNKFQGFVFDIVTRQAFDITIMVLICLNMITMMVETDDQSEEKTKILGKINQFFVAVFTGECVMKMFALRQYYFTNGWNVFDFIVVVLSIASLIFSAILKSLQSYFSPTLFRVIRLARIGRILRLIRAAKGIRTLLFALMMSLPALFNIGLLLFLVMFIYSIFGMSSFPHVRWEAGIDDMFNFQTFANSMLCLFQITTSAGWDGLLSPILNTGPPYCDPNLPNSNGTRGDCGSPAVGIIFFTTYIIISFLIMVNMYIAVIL

Row | SMILES | IC50 [µM]
1 | CC1(C)CCC(C)(C)c2cc(-c3cc(=O)c4c(C(N)=O)nccc4[nH]3)ccc21 [Compound 239, 4-oxo-2-(1,1,4,4-tetramethyltetralin-6-yl)-1H-1,6-naphthyridine-5-carboxamide] | 0.5 to 2
2 | Cc1nc(C(C)(C)C)c(C)nc1-c1cc(=O)c2c(C(N)=O)nccc2[nH]1 [Compound 246, 2-(5-tert-butyl-3,6-dimethyl-pyrazin-2-yl)-4-oxo-1H-1,6-naphthyridine-5-carboxamide] | 0.5 to 2
3 | CC(C)(C)c1cc(F)c(-c2cc(O)c3c(C(N)=O)nccc3n2)c(F)c1 [Compound 247, 2-(4-(tert-butyl)-2,6-difluorophenyl)-4-hydroxy-1,6-naphthyridine-5-carboxamide] | 0.5 to 2
4 | Cc1nc(-c2ccccc2)c(Cl)cc1-c1cc(=O)c2c(C(N)=O)nccc2[nH]1 [Compound 273, 2-(5-chloro-2-methyl-6-phenyl-3-pyridyl)-4-oxo-1H-1,6-naphthyridine-5-carboxamide] | 0.5 to 2
5 | Cc1nc(C2(C)CC2)c(Cl)cc1-c1cc(=O)c2c(C(N)=O)nccc2[nH]1 [Compound 286, 2-[5-chloro-2-methyl-6-(1-methylcyclopropyl)-3-pyridyl]-4-oxo-1H-1,6-naphthyridine-5-carboxamide] | 0.5 to 2
6 | Cc1nc(C(C)(C)CO)c(Cl)cc1-c1cc(=O)c2c(C(N)=O)nccc2[nH]1 [Compound 297, 2-[5-chloro-6-(2-hydroxy-1,1-dimethyl-ethyl)-2-methyl-3-pyridyl]-4-oxo-1H-1,6-naphthyridine-5-carboxamide] | 2 to 5
7 | Cc1cc(C(C)(C)C)ccc1-c1cc(=O)c2nc(OCCN(C)C)ccc2[nH]1 [Compound 304, 2-(4-tert-butyl-2-methyl-phenyl)-6-[2-(dimethylamino)ethoxy]-1H-1,5-naphthyridin-4-one] | 0.5 to 2
8 | COc1cc(C(C)C)cc(C)c1-c1cc(=O)c2ccccc2[nH]1 [Compound 337, 2-(4-isopropyl-2-methoxy-6-methyl-phenyl)-1H-quinolin-4-one] | 0.5 to 2
9 | CC(C)(C)c1ccc(-c2cc(=O)c3cnccc3[nH]2)c(CCCO)c1 [Compound 346, 2-[4-tert-butyl-2-(3-hydroxypropyl)phenyl]-1H-1,6-naphthyridin-4-one] | 2 to 5
10 | CC(C)(C)c1ccc(-c2[nH]c3ccncc3c(=O)c2Br)c(CCCO)c1 [Compound 347, 3-bromo-2-[4-tert-butyl-2-(3-hydroxypropyl)phenyl]-1H-1,6-naphthyridin-4-one] | 2 to 5
11 | CC(C)CN(CC(C)C)c1nc2ccccc2cc1-c1cc(=O)c2c(C(N)=O)nccc2[nH]1 [Compound 351, 2-[2-(diisobutylamino)-3-quinolyl]-4-oxo-1H-1,6-naphthyridine-5-carboxamide] | 2 to 5
12 | CCCN(CCC)c1nc2ccccc2cc1-c1cc(=O)c2c(C(N)=O)nccc2[nH]1 [Compound 352, 2-[2-(dipropylamino)-3-quinolyl]-4-oxo-1H-1,6-naphthyridine-5-carboxamide] | 2 to 5
13 | CCCCN(CC)c1nc2ccccc2cc1-c1cc(=O)c2c(C(N)=O)nccc2[nH]1 [Compound 353, 2-[2-[butyl(ethyl)amino]-3-quinolyl]-4-oxo-1H-1,6-naphthyridine-5-carboxamide] | 0.5 to 2
14 | Cc1cc(C(C)(C)CO)c(Cl)cc1-c1cc(=O)c2c(C(N)=O)nccc2[nH]1 [Compound 356, 2-[5-chloro-4-(2-hydroxy-1,1-dimethyl-ethyl)-2-methyl-phenyl]-4-oxo-1H-1,6-naphthyridine-5-carboxamide] | 2 to 5
15 | Cc1nc(C(C)(C)C(=O)O)c(Cl)cc1-c1cc(=O)c2c(C(N)=O)nccc2[nH]1 [Compound 359, 2-[5-(5-carbamoyl-4-oxo-1H-1,6-naphthyridin-2-yl)-3-chloro-6-methyl-2-pyridyl]-2-methyl-propanoic acid] | 2 to 5
16 | CCOC(=O)c1nc(C)c(-c2nccc3[nH]c(-c4cc(Cl)c(C(C)(C)C)cc4C)cc(=O)c23)o1 [Compound 390, ethyl 5-[2-(4-tert-butyl-5-chloro-2-methyl-phenyl)-4-oxo-1H-1,6-naphthyridin-5-yl]-4-methyl-oxazole-2-carboxylate] | 0.5 to 2
17 | Cn1nc(C(C)(C)C)cc1-c1cc(=O)c2cc(F)ccc2[nH]1 [Compound 417, 2-(5-tert-butyl-2-methyl-pyrazol-3-yl)-6-fluoro-1H-quinolin-4-one] | 0.5 to 2
18 | [2H]C([2H])([2H])C(c1cc(C)c(-c2cc(=O)c3c(C(N)=O)nccc3[nH]2)cc1Cl)(C([2H])([2H])[2H])C([2H])([2H])O [Compound 427, 2-(5-chloro-4-(1-hydroxy-2-(methyl-d3)propan-2-yl-1,1,3,3,3-d5)-2-methylphenyl)-4-oxo-1,4-dihydro-1,6-naphthyridine-5-carboxamide] | 2 to 5
